# Results published in patent publication US7776900B2, “Benzimidazole derivatives and their use for modulating the GABAAreceptor complex” (Neurosearch A/S, priority 2005, dated 2010).
# Structures can show the parent of a compound that is named as a salt.
# Tested on: not given
# Assay: not given
# Settings: not given
row,melting point,SMILES
1,192 to 194 °C,c1ccc(COCc2cccc(-n3cnc4cc(CN5CCCC5)ccc43)c2)nc1
2,165 to 167 °C,ON=Cc1ccc2c(c1)ncn2-c1cccc(CNCc2ccc(F)c(F)c2)c1
3,99.8 to 101.2 °C,CCOC(=O)c1ccc2c(c1)ncn2-c1cccc(COCc2ccccn2)c1
4,154 to 154.8 °C,ON=Cc1ccc2c(c1)ncn2-c1cccc(COCc2ccccn2)c1

row,SMILES,melting point
1,"CC(=NO)c1ccc2c(c1)ncn2-c1cccc(COCc2ncnn2C)c1 (as salt: chloride) [Compound 22a, 1-{1-[3-(2-Methyl-2H-[1,2,4]triazol-3-ylmethoxymethyl)-phenyl]-1H-benzoimidazol-5-yl}-ethanone oxime]",178.8 to 180.4 °C

# Biological target: GABAA receptor complex (benzodiazepine modulatory unit)
# Assay: In vitro inhibition of 3H-flunitrazepam (3H-FNM) binding
# Set-up: species or system rat
# Settings: inhibition of specific binding of 3H-FNM (1 nM), cerebral cortex membranes from male Wistar rats, 40 min at 2° C.
# Protocol: In vitro Inhibition of ^3H-flunitrazepam (^3H-FNM) Binding
# […] the benzodiazepine modulatory unit can selectively be labelled with ^3H-flunitrazepam.
# Preparations are performed at 0-4° C. unless otherwise indicated. Cerebral cortex from male Wistar rats (150-200 g) is homogenised for 5-10 sec in 20 ml Tris-HCl (30 mM, pH 7.4) using an Ultra-Turrax homogeniser. The suspension is centrifuged at 27,000×g for 15 min and the pellet is washed three times with buffer (centrifuged at 27,000×g for 10 min). The washed pellet is homogenized in 20 ml of buffer and incubated on a water bath (37° C.) for 30 min to remove endogenous GABA and then centrifuged for 10 min at 27,000×g. The pellet is then homogenized in buffer and centrifuged for 10 min at 27,000×g. The final pellet is resuspended in 30 ml buffer and the preparation is frozen and stored at −20° C.
# The membrane preparation is thawed and centrifuged at 2° C. for 10 min at 27,000×g. The pellet is washed twice with 20 ml 50 mM Tris-citrate, pH 7.1 using an Ultra-Turrax homogeniser and centrifuged for 10 min at 27,000×g. The final pellet is resuspended in 50 mM Tris-citrate, pH 7.1 (500 ml buffer per g of original tissue), and then used for binding assays. Aliquots of 0.5 ml tissue are added to 25 μl of test solution and 25 μl of ^3H-FNM (1 nM, final concentration), mixed and incubated for 40 min at 2° C. Non-specific binding is determined using Clonazepam (1 μM, final concentration). After incubation the samples are added 5 ml of ice-cold buffer and poured directly onto Whatman GF/C glass fibre filters under suction and immediately washed with 5 ml ice-cold buffer. The amount of radioactivity on the filters is determined by conventional liquid scintillation counting. Specific binding is total binding minus non-specific binding.
# 25-75% inhibition of specific binding must be obtained, before calculation of an IC50.
# The test value will be given as IC50 (the concentration (μM) of the test substance which inhibits the specific binding of ^3H-FNM by 50%). […]
row,SMILES,IC50
1,"CCOC(C)c1ccc2c(c1)ncn2-c1cccc(COCc2ncnn2C)c1 (centres unmarked) [Compound 24b, 5-(1-Ethoxy-ethyl)-1-[3-(2-methyl-2H-[1,2,4]triazol-3-ylmethoxymethyl)-phenyl]-1H-benzoimidazole]",9.2 nM
2,"CC(=NO)c1ccc2c(c1)ncn2-c1cccc(COCc2ncnn2C)c1 [Compound 22a, 1-{1-[3-(2-Methyl-2H-[1,2,4]triazol-3-ylmethoxymethyl)-phenyl]-1H-benzoimidazol-5-yl}-ethanone oxime]",2.1 nM
3,"CC(O)c1ccc2c(c1)ncn2-c1cccc(COCc2ncnn2C)c1 (centres unmarked) [Compound 23, 1{-1-[3-(2-Methyl-2H-[1,2,4]triazol-3-ylmethoxymethyl)-phenyl]-1H-benzoimidazol-5-yl}-ethanol]",22 nM
